# Data from patent US9833455B2, “Preparation and methods of use for ortho-aryl 5-membered heteroaryl-carboxamide containing multi-targeted kinase inhibitors” (Spacefill Enterprises LLC, priority 2011, dated 2017).
# Experiments:
# BRAF(V600E) = BRAF(V600E) (Homo sapiens, UniProt P15056, V600E); experiment: LanthaScreen assay, side by side IC50 comparison; format: biochemical; conditions: LanthaScreen assay, side by side comparison
# Description: To test both our binding mode hypothesis and to see if these structural differences could be taken exploited to impart selectivity and potency improvements, I-13, in which the lipophilic 2-trifluoromethy substituent on imidazole ring of inhibitor KIN-035, was replaced by the polar 2-methylsulfonyl substitutent. […] To address this issue, real time kinetic experiments were performed.
# MKNK2 = target: T1, MKNK2 (Homo sapiens, UniProt Q9HBH9); conditions: 1 μM, duplicate, without preincubation; cited from earlier work
# T1 construct: literature Ambit Biosciences
# BRAF = target: T2, BRAF (Homo sapiens, UniProt P15056); experiment: Nanosyn kinase profiling, % inhibition; format: biochemical; conditions: panel of 230 kinases
# T2 construct: literature Ambit Biosciences
# Description: (§1) “Inhibiting kinase activity” means to decrease the production of an phosphor-peptide by a particular kinase that can be separated by analytical techniques. For example, a comprehensive platform of kinase, protease, phosphatase and epigenetic assays that utilizes cutting-edge microfluidics and informatics tools to provide accurate and rapid results. Profiling data in this application were determined using these techniques at Nanosyn Inc. IC50 data were provided by Reaction Biology Inc using a P33 radiolabeled kinase assay.
# (§2) A total of 15 new inhibitors were designed, prepared, and evaluated against a panel of 29 selected kinases in order to explore the applicability, SAR trends, and the tunability of this scaffold that could be imposed but this unique geometry, Table 21. Inhibitors I-1 to 1-12 all retained the 2-CF3-5-(4-F-phenyl) imidazole-4-carboxamide scaffold previously described (Deitrich, 2010), but explored different Hinge-Gatekeeper Motifs (HGM).
# (§3) More modest activity for Aurora-A, FLT-1/4, KDR, KIT, PDGFRs was accompanied by better activity for B-Raf mutant and wild-type forms, Modest inhibition of MEK-1, BTK, c-Met, RET, and RON was also observed. […] Moreover, the observed inhibition of MEK-1 with 1-12 and TYK2 with I-6 represents additional activities against kinases for which no type-II inhibitors have been reported to date. […] To further evaluate the scope of inhibition, I-6 was evaluated against a larger panel of 230 kinases, Table-22.
# FLT3 = FLT3 (Homo sapiens, UniProt P36888); experiment: Nanosyn kinase profiling, % inhibition; format: biochemical; conditions: panel of 230 kinases
# Description: as §1, §2, §3
# KIT = KIT (Homo sapiens, UniProt P10721); experiment: Nanosyn kinase profiling, % inhibition; format: biochemical; conditions: panel of 230 kinases
# Description: as §1, §2, §3
# PDGFR-α = PDGFR-α (Homo sapiens, UniProt P16234); experiment: Nanosyn kinase profiling, % inhibition; format: biochemical; conditions: panel of 230 kinases
# Description: as §1, §2, §3
# ABL-T315I = ABL-T315I (Homo sapiens, UniProt P00519, T315I); experiment: Nanosyn kinase profiling, % inhibition; format: biochemical; conditions: panel of 230 kinases
# Description: as §1, §3
# ABL1 = ABL1 (Homo sapiens, UniProt P00519); experiment: Nanosyn kinase profiling, % inhibition; format: biochemical; conditions: panel of 230 kinases
# Description: as §1, §3
# ARG = ARG (Homo sapiens, UniProt P42684); experiment: Nanosyn kinase profiling, % inhibition; format: biochemical; conditions: panel of 230 kinases
# Description: as §1, §3
# AXL = AXL (Homo sapiens, UniProt P30530); experiment: Nanosyn kinase profiling, % inhibition; format: biochemical; conditions: panel of 230 kinases
# Description: as §1, §3
# BLK = BLK (Homo sapiens, UniProt P51451); experiment: Nanosyn kinase profiling, % inhibition; format: biochemical; conditions: panel of 230 kinases
# Description: as §1, §3
# EPH-A8 = EPH-A8 (Homo sapiens, UniProt P29322); experiment: Nanosyn kinase profiling, % inhibition; format: biochemical; conditions: panel of 230 kinases
# Description: as §1, §3
# EPH-B1 = EPH-B1 (Homo sapiens, UniProt P54762); experiment: Nanosyn kinase profiling, % inhibition; format: biochemical; conditions: panel of 230 kinases
# Description: as §1, §3
# EPH-B2 = EPH-B2 (Homo sapiens, UniProt P29323); experiment: Nanosyn kinase profiling, % inhibition; format: biochemical; conditions: panel of 230 kinases
# Description: as §1, §3
# FER = FER (Homo sapiens, UniProt P16591); experiment: Nanosyn kinase profiling, % inhibition; format: biochemical; conditions: panel of 230 kinases
# Description: as §1, §3
# HCK = HCK (Homo sapiens, UniProt P08631); experiment: Nanosyn kinase profiling, % inhibition; format: biochemical; conditions: panel of 230 kinases
# Description: as §1, §3
# HIPK3 = HIPK3 (Homo sapiens, UniProt Q9H422); experiment: Nanosyn kinase profiling, % inhibition; format: biochemical; conditions: panel of 230 kinases
# Description: as §1, §3
# HIPK4 = HIPK4 (Homo sapiens, UniProt Q8NE63); experiment: Nanosyn kinase profiling, % inhibition; format: biochemical; conditions: panel of 230 kinases
# Description: as §1, §3
# JAK2 = JAK2 (Homo sapiens, UniProt O60674); experiment: Nanosyn kinase profiling, % inhibition; format: biochemical; conditions: panel of 230 kinases
# Description: as §1, §3
# LYNA = LYNA (Homo sapiens, UniProt P07948); experiment: Nanosyn kinase profiling, % inhibition; format: biochemical; conditions: panel of 230 kinases
# Description: as §1, §3
# LYNB = LYNB (Homo sapiens, UniProt P07948); experiment: Nanosyn kinase profiling, % inhibition; format: biochemical; conditions: panel of 230 kinases
# Description: as §1, §3
# MAP4K5 = MAP4K5 (Homo sapiens, UniProt Q9Y4K4); experiment: Nanosyn kinase profiling, % inhibition; format: biochemical; conditions: panel of 230 kinases
# Description: as §1, §3
# MER = MER (Homo sapiens, UniProt Q12866); experiment: Nanosyn kinase profiling, % inhibition; format: biochemical; conditions: panel of 230 kinases
# Description: as §1, §3
# MKNK1 = target: T3, MKNK1 (Homo sapiens, UniProt Q9BUB5); experiment: Nanosyn kinase profiling, % inhibition; format: biochemical; conditions: panel of 230 kinases
# T3 construct: literature Ambit Biosciences
# Description: as §1, §3
# MNK2 = MNK2 (Homo sapiens, UniProt Q9HBH9); experiment: Nanosyn kinase profiling, % inhibition; format: biochemical; conditions: panel of 230 kinases
# Description: as §1, §3
# PRKD3 = PRKD3 (Homo sapiens, UniProt O94806); experiment: Nanosyn kinase profiling, % inhibition; format: biochemical; conditions: panel of 230 kinases
# Description: as §1, §3
# SPHK2 = SPHK2 (Homo sapiens, UniProt Q9NRA0); experiment: Nanosyn kinase profiling, % inhibition; format: biochemical; conditions: panel of 230 kinases
# Description: as §1, §3
# SRC = SRC (Homo sapiens, UniProt P12931); experiment: Nanosyn kinase profiling, % inhibition; format: biochemical; conditions: panel of 230 kinases
# Description: as §1, §3
# SRMS = SRMS (Homo sapiens, UniProt Q9H3Y6); experiment: Nanosyn kinase profiling, % inhibition; format: biochemical; conditions: panel of 230 kinases
# Description: as §1, §3
# TRKA = TRKA (Homo sapiens, UniProt P04629); experiment: Nanosyn kinase profiling, % inhibition; format: biochemical; conditions: panel of 230 kinases
# Description: as §1, §3
# TRKB = TRKB (Homo sapiens, UniProt Q16620); experiment: Nanosyn kinase profiling, % inhibition; format: biochemical; conditions: panel of 230 kinases
# Description: as §1, §3
# YES = YES (Homo sapiens, UniProt P07947); experiment: Nanosyn kinase profiling, % inhibition; format: biochemical; conditions: panel of 230 kinases
# Description: as §1, §3
# CDK3 = target: T4, CDK3 (Homo sapiens, UniProt Q00526); conditions: 1 μM, duplicate, without preincubation; cited from earlier work
# T4 construct: literature Ambit Biosciences
# ULK2 = target: T5, ULK2 (Homo sapiens, UniProt Q8IYT8); conditions: 1 μM, duplicate, without preincubation; cited from earlier work
# T5 construct: literature Ambit Biosciences
# Sequence of SPHK2 (Q9NRA0 whole entry): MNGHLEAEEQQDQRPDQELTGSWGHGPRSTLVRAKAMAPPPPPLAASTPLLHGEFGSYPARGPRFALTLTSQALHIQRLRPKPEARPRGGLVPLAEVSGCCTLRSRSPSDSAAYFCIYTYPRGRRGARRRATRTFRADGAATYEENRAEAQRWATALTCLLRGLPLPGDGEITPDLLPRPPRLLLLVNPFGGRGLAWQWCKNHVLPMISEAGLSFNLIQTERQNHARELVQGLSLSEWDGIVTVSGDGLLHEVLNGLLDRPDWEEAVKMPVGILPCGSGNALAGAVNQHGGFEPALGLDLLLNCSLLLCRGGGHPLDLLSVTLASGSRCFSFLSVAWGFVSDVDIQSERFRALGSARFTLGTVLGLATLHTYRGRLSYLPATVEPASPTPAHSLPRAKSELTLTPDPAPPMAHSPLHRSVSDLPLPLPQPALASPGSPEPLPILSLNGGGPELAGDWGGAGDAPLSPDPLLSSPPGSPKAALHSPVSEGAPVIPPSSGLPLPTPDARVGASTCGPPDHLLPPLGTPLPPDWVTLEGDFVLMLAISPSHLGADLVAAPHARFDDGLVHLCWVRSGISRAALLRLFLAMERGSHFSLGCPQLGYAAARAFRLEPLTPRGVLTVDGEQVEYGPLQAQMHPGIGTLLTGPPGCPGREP
# Sequence of AXL (P30530 26-894): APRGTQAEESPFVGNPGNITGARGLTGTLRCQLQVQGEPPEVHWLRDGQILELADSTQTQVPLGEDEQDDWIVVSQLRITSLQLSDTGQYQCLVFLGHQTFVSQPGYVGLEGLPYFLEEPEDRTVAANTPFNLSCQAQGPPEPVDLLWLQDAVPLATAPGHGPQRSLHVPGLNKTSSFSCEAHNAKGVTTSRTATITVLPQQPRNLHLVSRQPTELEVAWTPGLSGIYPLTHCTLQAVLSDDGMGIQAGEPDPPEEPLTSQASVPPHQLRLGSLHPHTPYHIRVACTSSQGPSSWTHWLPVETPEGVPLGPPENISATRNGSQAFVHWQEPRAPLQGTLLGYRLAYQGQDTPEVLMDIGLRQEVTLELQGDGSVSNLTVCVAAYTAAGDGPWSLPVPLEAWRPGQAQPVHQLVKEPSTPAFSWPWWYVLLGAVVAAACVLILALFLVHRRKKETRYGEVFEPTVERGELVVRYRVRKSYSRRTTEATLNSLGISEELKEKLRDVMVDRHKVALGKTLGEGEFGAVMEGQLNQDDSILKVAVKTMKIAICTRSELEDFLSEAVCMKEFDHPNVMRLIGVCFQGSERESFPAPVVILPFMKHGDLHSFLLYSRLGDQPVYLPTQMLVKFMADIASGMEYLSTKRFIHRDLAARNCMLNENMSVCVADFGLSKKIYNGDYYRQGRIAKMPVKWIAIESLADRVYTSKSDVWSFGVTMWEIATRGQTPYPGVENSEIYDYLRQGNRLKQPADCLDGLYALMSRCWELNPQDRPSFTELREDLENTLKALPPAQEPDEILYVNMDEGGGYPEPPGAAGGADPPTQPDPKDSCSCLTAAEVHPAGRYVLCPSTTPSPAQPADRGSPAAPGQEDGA
# Sequence of EPH-A8 (P29322 28-1005): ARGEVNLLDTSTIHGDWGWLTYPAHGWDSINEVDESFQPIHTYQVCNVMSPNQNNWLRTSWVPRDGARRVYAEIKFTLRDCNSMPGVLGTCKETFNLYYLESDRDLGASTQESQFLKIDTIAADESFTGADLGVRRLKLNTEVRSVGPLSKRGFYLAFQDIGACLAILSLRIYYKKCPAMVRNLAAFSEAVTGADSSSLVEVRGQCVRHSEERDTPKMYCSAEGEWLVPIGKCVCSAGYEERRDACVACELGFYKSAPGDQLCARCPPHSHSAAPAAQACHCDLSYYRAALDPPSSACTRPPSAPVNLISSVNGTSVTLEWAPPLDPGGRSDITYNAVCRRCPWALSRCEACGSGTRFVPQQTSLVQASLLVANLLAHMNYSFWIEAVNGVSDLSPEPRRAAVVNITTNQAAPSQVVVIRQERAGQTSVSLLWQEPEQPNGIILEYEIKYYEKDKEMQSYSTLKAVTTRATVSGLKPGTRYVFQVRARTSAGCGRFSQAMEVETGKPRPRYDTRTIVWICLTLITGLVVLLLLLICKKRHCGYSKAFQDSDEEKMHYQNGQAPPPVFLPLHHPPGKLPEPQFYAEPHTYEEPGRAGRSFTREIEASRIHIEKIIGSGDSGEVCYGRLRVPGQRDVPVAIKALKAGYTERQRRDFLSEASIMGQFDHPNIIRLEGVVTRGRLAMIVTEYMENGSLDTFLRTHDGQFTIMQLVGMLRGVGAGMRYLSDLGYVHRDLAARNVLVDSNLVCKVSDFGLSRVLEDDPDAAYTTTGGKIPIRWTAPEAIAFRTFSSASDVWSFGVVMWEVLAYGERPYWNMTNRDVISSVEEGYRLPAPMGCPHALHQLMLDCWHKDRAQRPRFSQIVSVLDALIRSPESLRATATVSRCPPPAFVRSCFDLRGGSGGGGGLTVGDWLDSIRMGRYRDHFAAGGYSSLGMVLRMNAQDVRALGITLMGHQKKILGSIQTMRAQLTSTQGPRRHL
# Sequence of KIT (P10721 26-976): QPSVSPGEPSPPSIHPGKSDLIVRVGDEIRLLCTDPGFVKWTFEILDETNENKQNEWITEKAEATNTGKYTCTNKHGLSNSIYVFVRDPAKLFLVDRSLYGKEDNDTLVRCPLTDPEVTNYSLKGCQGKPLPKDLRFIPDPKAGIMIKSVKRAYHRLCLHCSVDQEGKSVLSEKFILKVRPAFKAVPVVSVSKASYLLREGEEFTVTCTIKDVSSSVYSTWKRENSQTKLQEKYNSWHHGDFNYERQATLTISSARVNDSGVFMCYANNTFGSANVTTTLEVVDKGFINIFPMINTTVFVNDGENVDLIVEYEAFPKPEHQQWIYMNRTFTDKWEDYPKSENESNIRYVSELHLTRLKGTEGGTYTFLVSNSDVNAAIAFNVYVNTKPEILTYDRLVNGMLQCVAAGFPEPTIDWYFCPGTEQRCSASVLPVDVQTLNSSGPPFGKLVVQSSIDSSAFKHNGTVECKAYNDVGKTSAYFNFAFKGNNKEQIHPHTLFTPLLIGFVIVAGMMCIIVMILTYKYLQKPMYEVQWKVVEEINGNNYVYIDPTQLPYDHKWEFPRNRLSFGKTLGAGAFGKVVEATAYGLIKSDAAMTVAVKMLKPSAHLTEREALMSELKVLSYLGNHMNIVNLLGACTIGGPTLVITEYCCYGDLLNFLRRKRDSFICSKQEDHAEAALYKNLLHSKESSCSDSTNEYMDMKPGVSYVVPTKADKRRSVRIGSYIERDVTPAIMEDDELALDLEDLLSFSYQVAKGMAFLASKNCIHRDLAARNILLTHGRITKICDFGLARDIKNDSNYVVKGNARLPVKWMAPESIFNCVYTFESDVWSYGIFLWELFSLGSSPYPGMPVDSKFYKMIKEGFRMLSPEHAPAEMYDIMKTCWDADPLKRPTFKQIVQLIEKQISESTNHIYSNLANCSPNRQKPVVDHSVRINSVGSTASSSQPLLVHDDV
# Sequence of MER (Q12866 21-999): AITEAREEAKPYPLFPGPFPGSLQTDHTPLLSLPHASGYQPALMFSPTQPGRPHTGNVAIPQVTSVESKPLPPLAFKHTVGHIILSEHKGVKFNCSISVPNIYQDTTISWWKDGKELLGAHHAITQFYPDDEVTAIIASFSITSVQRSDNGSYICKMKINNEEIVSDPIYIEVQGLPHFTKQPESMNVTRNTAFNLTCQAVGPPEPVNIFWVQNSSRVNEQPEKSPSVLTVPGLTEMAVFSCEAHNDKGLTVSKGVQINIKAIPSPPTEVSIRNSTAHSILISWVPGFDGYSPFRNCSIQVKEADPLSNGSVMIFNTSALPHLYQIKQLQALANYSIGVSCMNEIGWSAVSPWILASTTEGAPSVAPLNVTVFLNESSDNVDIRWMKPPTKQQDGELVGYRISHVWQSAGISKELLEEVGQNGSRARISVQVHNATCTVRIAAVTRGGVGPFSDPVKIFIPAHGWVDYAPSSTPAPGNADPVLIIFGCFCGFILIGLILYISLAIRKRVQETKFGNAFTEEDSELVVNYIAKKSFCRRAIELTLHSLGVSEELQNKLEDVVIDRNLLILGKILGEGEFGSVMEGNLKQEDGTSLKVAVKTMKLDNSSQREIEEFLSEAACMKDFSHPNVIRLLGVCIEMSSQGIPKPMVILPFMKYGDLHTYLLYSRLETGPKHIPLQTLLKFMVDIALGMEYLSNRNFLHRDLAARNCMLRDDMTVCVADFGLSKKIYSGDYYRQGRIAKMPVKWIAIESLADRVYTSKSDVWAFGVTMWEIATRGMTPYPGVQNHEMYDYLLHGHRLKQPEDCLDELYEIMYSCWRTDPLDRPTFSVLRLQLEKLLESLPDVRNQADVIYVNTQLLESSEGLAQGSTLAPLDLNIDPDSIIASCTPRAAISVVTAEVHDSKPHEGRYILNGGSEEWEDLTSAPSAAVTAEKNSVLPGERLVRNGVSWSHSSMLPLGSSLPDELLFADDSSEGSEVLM
# Sequence of SRMS (Q9H3Y6 whole entry, species assumed): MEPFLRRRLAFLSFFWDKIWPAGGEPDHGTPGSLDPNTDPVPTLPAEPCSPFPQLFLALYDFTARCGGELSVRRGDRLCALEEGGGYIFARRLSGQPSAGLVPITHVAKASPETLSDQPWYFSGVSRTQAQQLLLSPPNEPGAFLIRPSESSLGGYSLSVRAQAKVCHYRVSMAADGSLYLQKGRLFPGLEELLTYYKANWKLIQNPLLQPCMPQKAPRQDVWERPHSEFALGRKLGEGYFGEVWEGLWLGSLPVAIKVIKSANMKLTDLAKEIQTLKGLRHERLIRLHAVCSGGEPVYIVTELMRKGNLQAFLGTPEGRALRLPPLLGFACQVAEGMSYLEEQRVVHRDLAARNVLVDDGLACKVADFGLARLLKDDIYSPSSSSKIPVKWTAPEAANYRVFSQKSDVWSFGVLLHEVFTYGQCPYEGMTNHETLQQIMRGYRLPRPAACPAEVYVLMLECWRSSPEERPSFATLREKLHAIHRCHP
smiles,measurement,setting,value
Cc1ccc(NC(=O)c2[nH]c(C(F)(F)F)nc2-c2ccc(F)cc2)cc1Nc1ccc2ncn(C)c(=O)c2c1 [KIN-035],IC50,BRAF(V600E),0.067 µM
same,inhibition of MKNK2,MKNK2,X (X > 25% @ 1 μM)
"CNC(=O)c1cc(Oc2ccc(NC(=O)c3nc(C(F)(F)F)[nH]c3-c3ccc(F)cc3)cc2)ccn1 [Inhibitor I-6, 4-(4-{[5-(4-Fluoro-phenyl)-2-trifluoromethyl-3H-imidazole-4-carbonyl]-amino}-phenoxy)-pyridine-2-carboxylic acid methylamide]",inhibition at 5 µM,BRAF,≥ 50%
same,inhibition at 5 µM,FLT3,≥ 50%
same,inhibition at 5 µM,KIT,≥ 50%
same,inhibition at 5 µM,PDGFR-α,≥ 50%
same,inhibition at 5 µM,ABL-T315I,≥ 50%
same,inhibition at 5 µM,ABL1,≥ 50%
same,inhibition at 5 µM,ARG,≥ 50%
same,inhibition at 5 µM,AXL,≥ 50%
same,inhibition at 5 µM,BLK,≥ 50%
same,inhibition at 5 µM,EPH-A8,≥ 50%
same,inhibition at 5 µM,EPH-B1,≥ 50%
same,inhibition at 5 µM,EPH-B2,≥ 50%
same,inhibition at 5 µM,FER,≥ 50%
same,inhibition at 5 µM,HCK,≥ 50%
same,inhibition at 5 µM,HIPK3,≥ 50%
same,inhibition at 5 µM,HIPK4,≥ 50%
same,inhibition at 5 µM,JAK2,≥ 50%
same,inhibition at 5 µM,LYNA,≥ 50%
same,inhibition at 5 µM,LYNB,≥ 50%
same,inhibition at 5 µM,MAP4K5,≥ 50%
same,inhibition at 5 µM,MER,≥ 50%
same,inhibition at 5 µM,MKNK1,≥ 50%
same,inhibition at 5 µM,MNK2,≥ 50%
same,inhibition at 5 µM,PRKD3,≥ 50%
same,inhibition at 5 µM,SPHK2,≥ 50%
same,inhibition at 5 µM,SRC,≥ 50%
same,inhibition at 5 µM,SRMS,≥ 50%
same,inhibition at 5 µM,TRKA,≥ 50%
same,inhibition at 5 µM,TRKB,≥ 50%
same,inhibition at 5 µM,YES,≥ 50%
Cc1ccc(-c2nc(C(F)(F)F)[nH]c2C(=O)Nc2ccc(C)c(Nc3ccc4ncn(C)c(=O)c4c3)c2)cc1F [KIN-038],inhibition of CDK3,CDK3,X (X > 25% @ 1 μM)
same,inhibition of ULK2,ULK2,X (X > 25% @ 1 μM)
